One assay deals with T1, mGluR5 binding site (Rattus norvegicus, UniProt P31424).
T1 construct: from tissue; host or cells: cortex of adult male Sprague-Dawley rats, membrane preparation
The assay is described as follows: [3H]-M-MPEP displacement studies on rat cortical membranes. The following applies: Table A3, [3H]-M-MPEP 2 nM, 4°C for 1 h, median, read-out: Ki (MMPEP). The protocol:
Tissue preparation is performed according to Foster & Wong (Br. J. Pharmacol., 1987, 91, 403-409) with some modifications. Anaesthetised male Sprague-Dawley rats (200-250 g, Janvier, Le Genest-Isle, France) are decapitated and their brains are removed rapidly. The cortex is dissected out and processed as described by Parsons, et al. (J. Pharmacol. Exp. Ther., 1997, 283(3): 1264-1275). For isolation of the cell membranes, the cortices are homogenized in 20 volumes of ice-cold 0.32 M sucrose (Sigma-Aldrich, Taufkirchen, Germany) using a glass-Teflon homogenizer. The homogenate is centrifuged at 1000 x g for 10 minutes, the pellet is discarded and the supernatant centrifuged at 20,000 x g for 20 minutes. The resulting pellet is resuspended in 20 volumes of distilled water and centrifuged for 20 minutes at 8000 x g. The supernatant and the buffy coat are then centrifuged six times (48,000 x g for 20 minutes) in the presence of 5 mM Tris-HCl, pH 7.5. All centrifugation steps are carried out at 4°C. After resuspension in 5 volumes of 5 mM Tris-HCl, pH 7.5, the membrane suspension is frozen rapidly at -80°C.
On the day of assay, the membrane suspensions are thawed, centrifuged (48,000 x g for 20 minutes) and then resuspended in 50 mM Tris-HCl, pH 7.5 (assay buffer). The amount of protein in the final membrane preparation is determined according to the method of Lowry, et al. (J. Biol. Chem., 1951, 193, 256-275). The final concentration used for our studies is 400 µg / ml.
The Tecan robotic system designed for binding assays is loaded with the membrane solution, a 96 well stock plate containing the solutions for bound control (buffer/DMSO 10%), unlabeled MPEP (10 µM) for evaluation of non-specific binding, all compounds to be tested (at 20-fold concentrations), various empty 96-well plates for dilutions and the final assay plates, as well as a 96-well plate filled with the radioligand.
Before performing displacement studies, saturation experiments are performed to determine the equilibrium dissociation constant (Kd, Cheng and Prussoff, Biochem. Pharmacol., 1973, 22: 3099-3108) of [^3H]-M-MPEP, which is a parameter for the affinity of the radioligand to the binding site. On the basis of the saturation experiments, a final [^3H]-M-MPEP concentration of 2 nM was selected.
Firstly, the assay plates are loaded with membrane solution and are shaken at 4°C. The mother plates were then prepared by pipetting the compounds (n = 5) into assay buffer/10% DMSO to obtain the desired final concentrations. After transferring radioligand into the assay plates, the compounds are added (including the non-specific binding control containing MPEP). The final DMSO concentration is always 1 %. The assay plates are incubated and shaken at 4°C for 1 h, before the mixture is exhausted as rapidly as possible via a vacuum manifold using the Multiscreen HTS glass fibre (type B) high flow filter plates (Millipore, Schwalbach, Germany) under a constant vacuum of 450 mbar. The membranes are washed four times with cold assay buffer (100 µL). 50 µL of Ultima Gold scintillation cocktail (PerkinElmer) is added to the wet filter plates and incubated at rt overnight before counting the disintegration per minutes using a liquid scintillation counter (MicroBeta, PerkinElmer).
For the evaluation of the test compound binding affinity to the mGluR5 binding site and its potency to displace [^3H]-M-MPEP, the measured radioactivity of the radioligand alone was set as 100% bound control and the non-specific binding of the radioligand represented the 0% control. The residual radioactivity after displacement of the test compound was then corrected with respect to the set controls. Data are given as median IC50 and Ki, respectively.

The target of assay [1] is T2, human metabotropic glutamate receptor mGluR5 (Homo sapiens, UniProt P41594).
T2 construct: expressed in transfected cells; host or cells: CHO-K1 (h5CHO), IPTG-inducible
T2 sequence (P41594 21-1212): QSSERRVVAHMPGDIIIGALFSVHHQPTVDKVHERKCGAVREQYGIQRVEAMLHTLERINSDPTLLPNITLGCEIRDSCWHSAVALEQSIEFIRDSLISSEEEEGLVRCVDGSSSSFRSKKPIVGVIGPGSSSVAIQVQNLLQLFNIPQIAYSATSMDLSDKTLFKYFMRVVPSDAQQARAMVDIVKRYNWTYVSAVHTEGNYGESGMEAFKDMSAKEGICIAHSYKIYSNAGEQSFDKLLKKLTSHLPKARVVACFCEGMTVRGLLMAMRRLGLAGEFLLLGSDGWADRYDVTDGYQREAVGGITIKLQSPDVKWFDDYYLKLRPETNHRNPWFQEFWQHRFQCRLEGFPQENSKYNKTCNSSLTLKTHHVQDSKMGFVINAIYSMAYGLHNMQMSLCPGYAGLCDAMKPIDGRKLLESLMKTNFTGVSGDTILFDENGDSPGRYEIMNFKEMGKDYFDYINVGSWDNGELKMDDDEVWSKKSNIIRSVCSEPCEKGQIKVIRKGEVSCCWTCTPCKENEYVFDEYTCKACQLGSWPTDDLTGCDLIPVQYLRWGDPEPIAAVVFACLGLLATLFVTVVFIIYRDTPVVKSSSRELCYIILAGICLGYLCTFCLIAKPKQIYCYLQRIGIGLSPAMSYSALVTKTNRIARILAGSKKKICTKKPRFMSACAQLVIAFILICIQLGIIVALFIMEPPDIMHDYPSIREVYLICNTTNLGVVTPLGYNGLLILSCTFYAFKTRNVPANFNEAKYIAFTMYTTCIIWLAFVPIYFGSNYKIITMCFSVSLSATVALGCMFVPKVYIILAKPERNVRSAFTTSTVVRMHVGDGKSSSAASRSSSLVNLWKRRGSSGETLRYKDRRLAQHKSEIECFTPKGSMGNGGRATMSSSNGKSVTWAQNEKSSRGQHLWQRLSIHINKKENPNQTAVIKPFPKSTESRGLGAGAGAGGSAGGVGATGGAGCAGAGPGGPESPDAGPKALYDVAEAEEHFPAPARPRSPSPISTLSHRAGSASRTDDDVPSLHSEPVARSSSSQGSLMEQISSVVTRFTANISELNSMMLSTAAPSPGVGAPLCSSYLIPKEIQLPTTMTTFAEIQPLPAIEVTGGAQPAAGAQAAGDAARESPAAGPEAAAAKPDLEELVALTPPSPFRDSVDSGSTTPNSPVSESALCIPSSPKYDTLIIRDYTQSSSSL
The assay is described as follows: Cytosolic calcium studies with stably transfected cells (h5CHO), functional assay of mGluR5 receptors. The following applies: Table A3 (SAMs / very weak PAMs); agonist EC50 shift with 10 µM modulator or vehicle; h5CHO cells. Format: cell-based. The method in brief: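 IPTG-induced h5CHO (CHO-K1 expressing human mGluR5) loaded with calcium dye; compounds (0.5% DMSO) added 5 min before agonist. NAM IC50 against L-quisqualate at ~EC80; PAM EC50 with EC20 L-glutamate. FLIPR fluorescence, max-minus-min, % of maximal response, logistic fit.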

T1 sequence (P31424 21-1203): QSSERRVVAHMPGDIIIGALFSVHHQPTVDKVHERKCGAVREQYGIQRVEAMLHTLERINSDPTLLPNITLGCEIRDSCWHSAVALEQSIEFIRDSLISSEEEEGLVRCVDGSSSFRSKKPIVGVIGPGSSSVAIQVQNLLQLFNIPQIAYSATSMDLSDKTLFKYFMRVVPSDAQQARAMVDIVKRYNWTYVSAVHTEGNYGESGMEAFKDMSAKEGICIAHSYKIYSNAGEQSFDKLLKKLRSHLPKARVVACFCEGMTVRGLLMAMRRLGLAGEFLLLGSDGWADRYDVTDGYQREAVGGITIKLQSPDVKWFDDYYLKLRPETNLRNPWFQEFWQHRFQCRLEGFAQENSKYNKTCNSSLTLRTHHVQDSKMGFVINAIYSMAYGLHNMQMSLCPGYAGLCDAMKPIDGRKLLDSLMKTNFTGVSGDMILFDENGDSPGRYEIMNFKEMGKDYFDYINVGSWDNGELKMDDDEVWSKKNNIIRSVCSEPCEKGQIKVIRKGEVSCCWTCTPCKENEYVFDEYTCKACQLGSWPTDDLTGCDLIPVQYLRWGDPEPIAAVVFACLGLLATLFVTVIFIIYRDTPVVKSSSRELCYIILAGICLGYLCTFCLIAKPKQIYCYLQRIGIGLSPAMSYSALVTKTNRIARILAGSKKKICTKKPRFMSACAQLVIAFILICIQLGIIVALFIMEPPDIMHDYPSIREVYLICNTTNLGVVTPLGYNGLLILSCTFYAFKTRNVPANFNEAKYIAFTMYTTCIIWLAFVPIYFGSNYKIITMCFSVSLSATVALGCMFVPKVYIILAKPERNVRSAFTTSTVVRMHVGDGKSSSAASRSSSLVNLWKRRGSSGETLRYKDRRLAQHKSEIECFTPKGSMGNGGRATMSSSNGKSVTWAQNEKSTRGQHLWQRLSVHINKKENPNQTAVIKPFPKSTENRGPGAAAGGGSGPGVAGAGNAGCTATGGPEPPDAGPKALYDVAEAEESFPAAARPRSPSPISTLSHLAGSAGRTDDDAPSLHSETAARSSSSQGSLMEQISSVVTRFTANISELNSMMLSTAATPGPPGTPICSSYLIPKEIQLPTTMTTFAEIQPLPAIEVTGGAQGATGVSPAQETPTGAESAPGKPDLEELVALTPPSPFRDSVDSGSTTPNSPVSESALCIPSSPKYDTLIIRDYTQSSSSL

What is called Ki is the dissociation constant of the complex between target and ligand, obtained from inhibition or displacement. In the case of “(rac)-cis-Methyl 3-((3-fluorophenyl)ethynyl)-6a,7,9,9a-tetrahydro-5H-pyrrolo[3,4-h]quinoline-8(6H)-carboxylate [Example 32]”, at mGluR5 binding site, the Ki came out at 49.3 nM. Moreover, the h left shift in assay [1] is reported as 0.9-fold.

For the origin of these results see EP2650284A1, “Heterocyclic derivatives as metabotropic glutamate receptor modulators” (Merz Pharma GmbH & Co. KGaA, priority 2012, dated 2013).
